The record followed here is patent publication US20230066011A1, “PYRROLOPYRIMIDINE DERIVATIVE, AND PHARMACEUTICAL COMPOSITION FOR PREVENTING OR TREATING PROTEIN KINASE-RELATED DISEASE COMPRISING SAME AS ACTIVE INGREDIENT” (VORONOI CO., LTD., priority 2019, published 2023).

Bounds are passed on as bounds.

Type in all cases: biochemical
One test concerns the target LRRK2 (Homo sapiens, UniProt Q5S007). Nature of the test: LRRK2 enzyme inhibition, ADP-Glo kinase assay. On the set-up: purchased Invitrogen PR8604B. Particulars: ATP 10 μM. The protocol:
To evaluate an inhibitory activity of the compound according to the present invention against LRRK2, LRRK2 (G2019S), DYRK1, CLK1, and TTK kinases, experiments were performed as follows.
Each of the Example compounds was reacted with a purified human LRRK2 (Invitrogen #PR8604B) enzyme to evaluate an ability to inhibit an enzyme using a method as described below. A composition of 40 mM Tris-HCl (pH 7.4), 20 mM MgCl2, 0.5 mg/mL BSA, and 50 μM DTT was used as a reaction buffer, and all reactions of test substances were performed in the reaction buffer. Each of the compounds was diluted […] from a 10 mM DMSO stock using a serial dilution method, and enzyme activities were measured at final compound concentrations of 50, 10, 2, 0.4, 0.08, 0.016, 0.0032, 0.00064, 0.000128, 0.0000256, 0.00000512, and 0.000001024 μM. In the test, purified ATP (10 μM) and an enzyme substrate (0.2 μg) were reacted with a human LRRK2 (25 ng) enzyme at 25° C. for 2 hours, and the enzyme activities were determined using an in vitro ADP-Glo™ kinase assay (Promega). An enzyme-activity reaction solution, an ADP-Glo reaction solution, and an enzyme-ability detection solution were reacted at a ratio of 2:2:1 to measure a degree of inhibition of the enzyme activity with luminescence. The degree of inhibition of the enzyme activity according to the treatment concentration of each of the compounds was calculated based on the fluorescence of the enzyme activity of the solvent control which was not treated with the compound. In this case, the concentration of each of the compounds inhibiting 50% of the enzyme activity was determined to be an IC50 (nM) value, and calculated using Prism (Version 5.01; GraphPad) software.

The target in a further test is LRRK2 (G2019S) (Homo sapiens, UniProt Q5S007, G2019S). The experiment in a line: LRRK2 G2019S enzyme inhibition, ADP-Glo kinase assay. On the set-up: purchased SignalChem L10-12GG. Particulars: ATP 25 μM. The gist of the method: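 Purified human LRRK2 G2019S (16 ng) with 25 μM ATP and 0.2 μg substrate, 2 h at 25° C. in Tris-HCl pH 7.4, MgCl2, BSA, DTT buffer; compounds at 12 final concentrations, 50 μM down to 0.000001024 μM. ADP-Glo luminescence versus solvent control gave IC50.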
Chain of LRRK2 (G2019S) (Q5S007 970-2527 G2019S limits assumed): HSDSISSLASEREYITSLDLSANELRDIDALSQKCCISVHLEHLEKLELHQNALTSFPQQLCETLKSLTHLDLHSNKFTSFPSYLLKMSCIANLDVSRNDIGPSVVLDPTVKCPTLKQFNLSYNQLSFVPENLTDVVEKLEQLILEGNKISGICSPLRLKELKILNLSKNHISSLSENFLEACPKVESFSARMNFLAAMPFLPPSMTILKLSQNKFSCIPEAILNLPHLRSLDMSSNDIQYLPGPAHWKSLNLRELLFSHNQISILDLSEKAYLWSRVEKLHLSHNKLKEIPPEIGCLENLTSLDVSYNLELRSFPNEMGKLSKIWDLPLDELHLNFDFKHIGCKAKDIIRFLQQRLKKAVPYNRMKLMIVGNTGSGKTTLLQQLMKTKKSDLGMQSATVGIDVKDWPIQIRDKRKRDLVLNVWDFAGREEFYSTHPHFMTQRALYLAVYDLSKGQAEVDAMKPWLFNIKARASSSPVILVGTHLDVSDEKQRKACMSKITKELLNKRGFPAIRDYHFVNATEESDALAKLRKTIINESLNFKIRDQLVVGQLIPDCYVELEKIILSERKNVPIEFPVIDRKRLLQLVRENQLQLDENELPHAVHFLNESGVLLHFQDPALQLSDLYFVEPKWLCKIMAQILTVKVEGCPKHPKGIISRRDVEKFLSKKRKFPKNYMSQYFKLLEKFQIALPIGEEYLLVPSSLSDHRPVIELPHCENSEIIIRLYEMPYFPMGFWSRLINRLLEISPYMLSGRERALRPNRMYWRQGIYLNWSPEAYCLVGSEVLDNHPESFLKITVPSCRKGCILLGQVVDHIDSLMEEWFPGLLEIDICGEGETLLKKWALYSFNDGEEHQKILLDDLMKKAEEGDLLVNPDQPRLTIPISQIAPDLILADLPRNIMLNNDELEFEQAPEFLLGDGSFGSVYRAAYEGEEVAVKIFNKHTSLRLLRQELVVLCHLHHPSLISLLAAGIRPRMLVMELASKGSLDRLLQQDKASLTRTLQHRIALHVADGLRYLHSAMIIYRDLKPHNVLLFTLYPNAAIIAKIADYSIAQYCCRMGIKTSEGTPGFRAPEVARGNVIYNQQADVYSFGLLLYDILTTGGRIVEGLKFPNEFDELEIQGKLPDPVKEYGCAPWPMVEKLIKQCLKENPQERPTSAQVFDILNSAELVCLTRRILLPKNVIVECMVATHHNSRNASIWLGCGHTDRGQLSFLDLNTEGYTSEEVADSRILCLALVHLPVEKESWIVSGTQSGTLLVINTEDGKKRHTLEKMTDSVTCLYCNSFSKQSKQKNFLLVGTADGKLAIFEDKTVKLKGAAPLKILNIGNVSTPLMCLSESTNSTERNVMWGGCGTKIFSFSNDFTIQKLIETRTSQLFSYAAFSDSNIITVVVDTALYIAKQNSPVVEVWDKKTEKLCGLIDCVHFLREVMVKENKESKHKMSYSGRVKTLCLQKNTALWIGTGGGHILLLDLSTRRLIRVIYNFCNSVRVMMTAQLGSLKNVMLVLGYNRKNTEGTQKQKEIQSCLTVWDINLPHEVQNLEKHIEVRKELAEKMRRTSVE
(In general: ADP-Glo first removes unused ATP, then detects ADP through luciferase.)

For another test, the target named is T1, human GST-DYRK1A (Homo sapiens, UniProt Q13627).
T1 construct: purified human GST-DYRK1A (full length, Thermo Scientifics) enzyme; purchased Thermo Scientifics
The experiment in a line: GST-DYRK1A enzyme inhibition, ADP-Glo kinase assay. Particulars: ATP 10 μM, GST-DYRK1A full length, read-out: DYRK1 IC50. The method, boiled down:
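Full-length human GST-DYRK1A (10 ng) with 10 μM ATP and specific substrate in 40 mM Tris-HCl pH 7.4, 20 mM MgCl2, 0.5 mg/mL BSA, 50 μM DTT, 1 h at 25 °C. ADP formation read by ADP-Glo luminescence relative to solvent control; IC50 from three data sets.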

A further test concerns the target T2, human GST-CLK1 (Homo sapiens, UniProt P49759).
T2 construct: purified human GST-CLK1 (129-end, SignalChem) enzyme; purchased SignalChem
The experiment in a line: GST-CLK1 enzyme inhibition, ADP-Glo kinase assay. Particulars: ATP 10 μM, GST-CLK1 129-end. The gist of the method:
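Human GST-CLK1 (129-end, 3 ng) reacted with substrate and 10 μM ATP for 1 h at 25° C in 40 mM Tris-HCl pH 7.4, 20 mM MgCl2, 0.5 mg/mL BSA, 50 μM DTT. ADP-Glo luminescence was normalised to solvent control; IC50 (nM) from 3 data sets.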

T2 sequence (P49759 129-484 limits assumed): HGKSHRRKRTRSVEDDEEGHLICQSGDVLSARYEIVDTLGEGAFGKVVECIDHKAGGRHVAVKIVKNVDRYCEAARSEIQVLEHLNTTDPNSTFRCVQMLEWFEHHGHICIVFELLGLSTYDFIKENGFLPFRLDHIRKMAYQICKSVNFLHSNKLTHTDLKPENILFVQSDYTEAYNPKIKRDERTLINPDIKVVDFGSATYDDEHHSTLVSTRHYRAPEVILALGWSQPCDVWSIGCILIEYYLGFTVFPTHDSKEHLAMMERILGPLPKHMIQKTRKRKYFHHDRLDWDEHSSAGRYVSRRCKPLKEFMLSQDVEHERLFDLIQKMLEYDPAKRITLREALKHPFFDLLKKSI
Chain of LRRK2 (Q5S007 970-2527 limits assumed): as the sequence (Q5S007 970-2527 G2019S limits assumed) above, with S1050G counted along it

In the case of `CNc1nc(Nc2ccc(S(C)(=O)=O)cc2OC)nc2[nH]cc(C(F)(F)F)c12` [Example 163, N^2-(2-methoxy-4-(methylsulfonyl)phenyl)-N^4-methyl-5-(trifluoromethyl)-7H-pyrrolo[2,3-d]pyrimidine-2,4-diamine], the IC50 (commonly the midpoint of a concentration-inhibition curve) is less than 0.1 µM on LRRK2, less than 0.1 µM at LRRK2 (G2019S), 0.101 to 0.3 µM on human GST-DYRK1A and 0.301 to 1 µM at human GST-CLK1.
`N#Cc1c[nH]c2nc(Nc3ccc(C(=O)N4CCOCC4)c4c3OCCO4)nc(NCC3CC3)c12` [Example 130, 4-((cyclopropylmethyl)amino)-2-((8-(morpholine-4-carbonyl)-2,3-dihydrobenzo[b][1,4]dioxin-5-yl)amino)-7H-pyrrolo[2,3-d]pyrimidine-5-carbonitrile]: the IC50 was less than 0.1 µM at LRRK2, less than 0.1 µM against LRRK2 (G2019S), 0.301 to 1 µM at human GST-DYRK1A and 0.301 to 1 µM at human GST-CLK1.
For the compound `COCCNc1nc(Nc2ccc(C(=O)N3CCOCC3)c3c2OCCO3)nc2[nH]cc(C#N)c12` [Example 123, 4-((2-methoxyethyl)amino)-2-((8-(morpholine-4-carbonyl)-2,3-dihydrobenzo[b][1,4]dioxin-5-yl)amino)-7H-pyrrolo[2,3-d]pyrimidine-5-carbonitrile], the IC50 on LRRK2 is less than 0.1 µM; at LRRK2 (G2019S), less than 0.1 µM; on human GST-DYRK1A, 0.101 to 0.3 µM; at human GST-CLK1, less than 0.1 µM.
For `COCCNc1nc(Nc2ccc(S(=O)(=O)N3CCOCC3)cc2OC)nc2[nH]ccc12` [Example 19, N^2-(2-methoxy-4-(morpholinosulfonyl)phenyl)-N^4-(2-methoxyethyl)-7H-pyrrolo[2,3-d]pyrimidine-2,4-diamine], the IC50 against LRRK2 was less than 0.1 µM; at LRRK2 (G2019S), less than 0.1 µM; on human GST-DYRK1A it was 0.301 to 1 µM; against human GST-CLK1 it was 0.301 to 1 µM.
Consider `CCNc1nc(Nc2ccc(C(=O)N3CCOCC3)c3c2OCCO3)nc2[nH]ccc12` [Example 58, (8-((4-(ethylamino)-7H-pyrrolo[2,3-d]pyrimidin-2-yl)amino)-2,3-dihydrobenzo[b][1,4]dioxin-5-yl)(morpholino)methanone 2,2,2-trifluoroacetate], for which the IC50 was less than 0.1 µM at LRRK2, less than 0.1 µM against LRRK2 (G2019S), 0.301 to 1 µM on human GST-DYRK1A and 0.301 to 1 µM against human GST-CLK1.
Take `C=CCNc1nc(Nc2ccc(S(=O)(=O)N3CCOCC3)cc2OC)nc2[nH]ccc12` [Example 246, N4-allyl-N2-(2-methoxy-4-(morpholinosulfonyl)phenyl)-7H-pyrrolo[2,3-d]pyrimidine-2,4-diamine]: the IC50 against LRRK2 is less than 0.1 µM; against LRRK2 (G2019S), less than 0.1 µM; at human GST-DYRK1A, 0.301 to 1 µM; at human GST-CLK1, 0.301 to 1 µM.
On to `O=C(c1ccc(Nc2nc(NC3CCC3)c3c(C(F)(F)F)c[nH]c3n2)c2c1OCCO2)N1CCOCC1` [Example 185, (8-((4-(cyclobutylamino)-5-(trifluoromethyl)-7H-pyrrolo[2,3-d]pyrimidin-2-yl)amino)-2,3-dihydrobenzo[b][1,4]dioxin-5-yl)(morpholino)methanone], for which the IC50 is less than 0.1 µM against LRRK2, 0.101 to 0.3 µM against LRRK2 (G2019S), 0.301 to 1 µM at human GST-DYRK1A and 0.101 to 0.3 µM against human GST-CLK1.
For `N#Cc1c[nH]c2nc(Nc3ccc(C(=O)N4CCOCC4)c4c3OCCO4)nc(NC3CCC3)c12` [Example 125, 4-(cyclobutylamino)-2-((8-(morpholine-4-carbonyl)-2,3-dihydrobenzo[b][1,4]dioxin-5-yl)amino)-7H-pyrrolo[2,3-d]pyrimidine-5-carbonitrile], the IC50 was less than 0.1 µM on LRRK2, less than 0.1 µM against LRRK2 (G2019S), 0.301 to 1 µM on human GST-DYRK1A and 0.101 to 0.3 µM at human GST-CLK1.
On to `COc1cc(S(C)(=O)=O)ccc1Nc1nc(NC2CCC2)c2c(C(F)(F)F)c[nH]c2n1` [Example 184, N^4-cyclobutyl-N^2-(2-methoxy-4-(methylsulfonyl)phenyl)-5-(trifluoromethyl)-7H-pyrrolo[2,3-d]pyrimidine-2,4-diamine], for which the IC50 at LRRK2 is less than 0.1 µM; at LRRK2 (G2019S), 0.101 to 0.3 µM; on human GST-DYRK1A, 0.301 to 1 µM; on human GST-CLK1 it was 0.101 to 0.3 µM.
Turning to `CC[C@@H](C)Nc1nc(Nc2ccc(C(=O)N3CCOCC3)c3c2OCCO3)nc2[nH]cc(C(F)(F)F)c12` [Example 174, (R)-(8-((4-(sec-butylamino)-5-(trifluoromethyl)-7H-pyrrolo[2,3-d]pyrimidin-2-yl)amino)-2,3-dihydrobenzo[b][1,4]dioxin-5-y)(morpholino)methanone], the IC50 on LRRK2 is less than 0.1 µM; at LRRK2 (G2019S), less than 0.1 µM; at human GST-DYRK1A it was 0.301 to 1 µM; at human GST-CLK1, 0.301 to 1 µM.
Turning to `COCCNc1nc(Nc2ccc(C(=O)N3CCOCC3)c3c2OCCO3)nc2[nH]cc(C(N)=O)c12` [Example 235, 4-((2-methoxyethyl)amino)-2-((8-(morpholine-4-carbonyl)-2,3-dihydrobenzo[b][1,4]dioxin-5-yl)amino)-7H-pyrrolo[2,3-d]pyrimidine-5-carboxamide], the IC50 against LRRK2, against LRRK2 (G2019S), on human GST-DYRK1A and against human GST-CLK1 was 0.301 to 1 µM each time.
Turning to `COc1cc(S(C)(=O)=O)ccc1Nc1nc(NC2CC2)c2c(C(F)(F)F)c[nH]c2n1` [Example 376, N^4-cyclopropyl-N^2-(2-methoxy-4-(methylsulfonyl)phenyl)-5-(trifluoromethyl)-7H-pyrrolo[2,3-d]pyrimidine-2,4-diamine], the IC50 was less than 0.1 µM at LRRK2, less than 0.1 µM against LRRK2 (G2019S), 0.301 to 1 µM at human GST-DYRK1A and 0.101 to 0.3 µM against human GST-CLK1.
For the compound `COc1cc(S(C)(=O)=O)ccc1Nc1nc(NC2CCC2)c2c(C#N)c[nH]c2n1` [Example 105, 4-(cyclobutylamino)-2-((2-methoxy-4-(methylsulfonyl)phenyl)amino)-7H-pyrrolo[2,3-d]pyrimidine-5-carbonitrile], the IC50 was less than 0.1 µM against LRRK2, less than 0.1 µM on LRRK2 (G2019S), 0.301 to 1 µM on human GST-DYRK1A and 0.301 to 1 µM against human GST-CLK1.
With `CNc1nc(Nc2ccc(S(C)(=O)=O)cc2OC)nc2[nH]cc(C#N)c12` [Example 257, 2-((2-methoxy-4-(methylsulfonyl)phenyl)amino)-4-(methylamino)-7H-pyrrolo[2,3-d]pyrimidine-5-carbonitrile], the IC50 is less than 0.1 µM against LRRK2, less than 0.1 µM on LRRK2 (G2019S), 0.301 to 1 µM at human GST-DYRK1A and 0.301 to 1 µM against human GST-CLK1.
`CCCNc1nc(Nc2ccc(S(C)(=O)=O)cc2OC)nc2[nH]cc(C#N)c12` [Example 99, 2-((2-methoxy-4-(methylsulfonyl)phenyl)amino)-4-(propylamino)-7H-pyrrolo[2,3-d]pyrimidine-5-carbonitrile]: the IC50 is less than 0.1 µM against LRRK2, 0.101 to 0.3 µM at LRRK2 (G2019S), 0.301 to 1 µM at human GST-DYRK1A and 0.301 to 1 µM against human GST-CLK1.
As to `O=C(c1ccc(Nc2nc(NC3CCCC3)c3c(C(F)(F)F)c[nH]c3n2)c2c1OCCO2)N1CCOCC1` [Example 189, (8-((4-(cyclopentylamino)-5-(trifluoromethyl)-7H-pyrrolo[2,3-d]pyrimidin-2-yl)amino)-2,3-dihydrobenzo[b][1,4]dioxin-5-yl)(morpholino)methanone], the IC50 at LRRK2 was less than 0.1 µM; on human GST-DYRK1A, 0.101 to 0.3 µM; against human GST-CLK1 it was 0.101 to 0.3 µM.
As to `COc1cc(S(C)(=O)=O)ccc1Nc1nc(NC2CCCC2)c2c(C(F)(F)F)c[nH]c2n1` [Example 188, N^4-cyclopentyl-N^2-(2-methoxy-4-(methylsulfonyl)phenyl)-5-(trifluoromethyl)-7H-pyrrolo[2,3-d]pyrimidine-2,4-diamine], the IC50 at LRRK2, on human GST-DYRK1A and at human GST-CLK1 was 0.301 to 1 µM throughout.
